Series [1] addresses T1, catalytic domain of human stromelysin (MMP-3) (Homo sapiens, UniProt P08254).
T1 construct: enzymatic activity of the catalytic domain of human stromelysin; made in house
In words: Enzymatic activity of the catalytic domain of human stromelysin (fluorogenic substrate). The settings on record: inhibitor concentration giving 50% inhibition of the enzyme; pH 6.5 buffer; 15 minutes preincubation; fluorescence 328 nm (ex)/393 nm (em). The format is biochemical. As to the method: Preparation and determination of the enzymatic activity of the catalytic domain of human stromelysin
The enzyme stromelysin (MMP-3) was prepared according to Ye et al. (Biochemistry; 31 (1992) pages 11231-11235). For the measurement of the enzyme activity or of the enzyme inhibitor action, 70 μl of buffer solution and 10 μl of enzyme solution were incubated for 15 minutes with 10 μl of a 10% strength (v/v) aqueous dimethyl sulfoxide solution, which optionally contained the enzyme inhibitor. After addition of 10 μl of a 10% strength (v/v) aqueous dimethyl sulfoxide solution which contained I mmol/l of the substrate, the enzyme reaction was monitored by fluorescence spectroscopy (328 nm (ex)/393 nm (em)). The enzyme activity is shown as the extinction increase/minute. The IC50 value was determined as that inhibitor concentration which in each case led to a 50% inhibition of the enzyme.
The buffer solution contained 0.05% Brij (Sigma, Deisenhofen, Germany) and 0.1 mol/l of tris/HCl, 0.1 mol/l of NaCl, 0.01 mol/l of CaCl2 and 0.1 mol/l of piperazine-N,N′-bis[2-ethanesulfonic acid] (pH=6.5).
The enzyme solution contained 5 μg/ml of an enzyme domain prepared according to Ye et al. The substrate solution contained 1 mmol/l of the fluorogenic substrate (7-methoxycoumarin-4-yl)acetyl-Pro-Leu-Gly-Leu-3-(2′,4′-dinitrophenyl)-L-2,3-diaminopropionyl-Ala-Arg-NH2 (Bachem, Heidelberg, Germany).

Series [2] in a line: Stability of isolated stromemycin in solution (properties). The settings on record: neutral medium vs strongly acidic and alkaline solution. The format is physicochemical. The text has this:
(§1) The stromemycin obtained has the following properties: […]

Series [3] can be described thus: Solubility of isolated stromemycin (properties). The format is physicochemical. The settings on record: solvents methanol, DMSO.
Description: as §1

The term IC50 denotes the midpoint of a concentration-inhibition curve. Lower therefore signals higher potency.

T1 sequence (P08254 100-272 limits assumed): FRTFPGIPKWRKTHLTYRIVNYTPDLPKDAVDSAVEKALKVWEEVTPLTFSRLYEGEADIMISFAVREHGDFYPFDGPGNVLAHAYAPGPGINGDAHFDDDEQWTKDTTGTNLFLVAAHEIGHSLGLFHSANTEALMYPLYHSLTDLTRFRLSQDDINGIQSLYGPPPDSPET

Take `CCCC=CC=CCCc1cc(OC(=O)c2c(CCC=CC=CCCC)cc(O)c(C3OC(CO)C(O)C(O)C3O)c2O)cc(O)c1C(=O)O` (stereo not drawn) [stromemycin]: the IC50 in series [1] was found to be 115 µM. Moreover, in series [2], the Stability result was “stable in neutral medium, but unstable in strongly acidic and alkaline solution”. The Solubility result in series [3] is given as “soluble in methanol, dimethyl sulfoxide (DMSO)”.

The values are drawn from patent US6337411B2, “Stromelysin inhibitors” (Aventis Pharma Deutschland GmbH, priority 1999, dated 2002).
